Test results reported in paper PMC3634732, “Chemical Chaperones Exceed the Chaperone Effects of RIC-3 in Promoting Assembly of Functional α7 AChRs” (PLoS ONE, 2013).

Tests used:
[1] = molecular target: T1, α7 AChRs on the surface of cells in the α7/RIC-3 line (Homo sapiens, UniProt P36544); experiment: Upregulation of surface 125I αBgt binding in the α7/RIC-3 cell line; type: cell-based; conditions: single chemical chaperone
T1 construct: expressed in transfected cells

α7/RIC-3 cell line = experiment: Tolerability of chemical chaperones in α7/RIC-3 culture; type: cell-based, human; conditions: 6 mM, applied for longer periods than a few days
[2] = tested on: α7 AChRs in primary cultures of rat hippocampal neurons; experiment: 125I αBgt binding to rat hippocampal neuron cultures; type: cell-based; conditions: for Increase of α7 AChR expression: VPA for 5 days
[3] = tested on: endogenous α7 AChRs in SH-SY5Y neuroblastoma cell line; experiment: Surface 125I αBgt binding in SH-SY5Y cells treated with chemical chaperones; type: cell-based, human
Rat α7 AChRs = conditions: cited from earlier work

T1 sequence (P36544 23-502): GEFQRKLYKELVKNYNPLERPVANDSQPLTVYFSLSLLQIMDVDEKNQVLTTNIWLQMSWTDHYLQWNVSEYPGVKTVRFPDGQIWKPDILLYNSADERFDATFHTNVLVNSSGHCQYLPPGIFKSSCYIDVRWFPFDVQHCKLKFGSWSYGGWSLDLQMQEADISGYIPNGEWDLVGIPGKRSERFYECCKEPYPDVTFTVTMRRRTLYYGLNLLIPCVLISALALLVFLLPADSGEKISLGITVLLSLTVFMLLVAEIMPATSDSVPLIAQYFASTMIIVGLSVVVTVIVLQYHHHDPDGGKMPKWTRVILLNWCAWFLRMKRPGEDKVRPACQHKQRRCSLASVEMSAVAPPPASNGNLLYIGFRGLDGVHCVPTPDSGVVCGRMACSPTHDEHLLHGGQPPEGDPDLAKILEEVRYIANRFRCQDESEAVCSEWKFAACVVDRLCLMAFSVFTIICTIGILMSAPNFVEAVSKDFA

SMILES | Expression of α7 AChRs on the cell surface [1] | Toxicity in culture (α7/RIC-3 cell line) | Effect on 125I αBgt binding ([2]; rat hippocampal neurons (data not shown)) | Increase of 125I αBgt binding to the cell surface ([3]; 24 hours, 10 µM) [fold] | Increase of α7 AChRs in the cell surface vs control ([3]; 24 hours, 300 µM) [fold] | Increase in expression of α7 AChRs on the cell surface, maximum ([3]; concentration-dependent) | EC50 (Rat α7 AChRs) [µM] | Increase of α7 AChR expression ([2]; at 20 days in culture) [%] | Increase of α7 AChR expression ([2]; cultures only 1 week old) [%] | Increase of 125I αBgt binding ([2]; long term treatment of primary cultures) [%] | Concentration giving maximum upregulation ([2]; rat hippocampal neurons) [mM] | Increase of α7 expression ([3]; 100 µM) [fold]
O=C(O)CCCc1ccccc1 [PBA, 4-phenylbutyric acid] | greatly increased | toxic when applied for longer periods | ineffective | 3 | 7.8 | up to 7.8 fold | – | – | – | – | – | –
CC(=O)OCC[N+](C)(C)C [ACh] | – | – | – | – | – | – | 280 | – | – | – | – | –
CCCC(CCC)C(=O)O [VPA, valproic acid] | greatly increased | – | – | – | – | – | – | 57 | 68 | 60 | 0.5 | 7.3
